Source: the NIST ThermoML archive (doi:10.1016/j.fluid.2013.10.012)
± gives the expanded uncertainty stated by the source.

Experiments:
[1] = Liquid; for mass density: 298.15 K, 101.33 kPa, Vibrating tube method; for vapor or sublimation pressure: Ebulliometric method (Recirculating still)
[2] = refractive index (Na D-line) (dimensionless); settings: 298.15 K; 101.33 kPa; Liquid; Standard Abbe refractometry

Row | Structure (SMILES) | mass density [1] [kg/m3] | vapor or sublimation pressure ([1]; 347.2 K) [kPa] | refractive index [2] | vapor or sublimation pressure ([1]; 342.8 K) [kPa] | vapor or sublimation pressure ([1]; 342 K) [kPa] | vapor or sublimation pressure ([1]; 393.4 K) [kPa]
1 | Cc1ccccc1C [1,2-dimethylbenzene] | 875.5 ± 1 | 10 ± 0.15 | 1.5031 ± 0.0007 |  |  | 
2 | Cc1cccc(C)c1 [1,3-dimethylbenzene] | 859.95 ± 1 |  | 1.4946 ± 0.0007 | 10 ± 0.15 |  | 
3 | Cc1ccc(C)cc1 [1,4-dimethylbenzene] | 856.71 ± 1 |  | 1.4931 ± 0.0007 |  | 10 ± 0.15 | 
4 | CCCCCCCCCCC [undecane] | 736.85 ± 1 |  | 1.4152 ± 0.0007 |  |  | 10 ± 0.15
